≈ marks a conversion by molar mass, not a printed value. Structures can show the parent of a compound that is named as a salt.
Columns and labels:
[1] = system: Human immunodeficiency virus 1; assay: Antiviral activity against HIV1 replication in human C8166 cells by ELISA; type: functional, organism-based; conditions: Human immunodeficiency virus 1, C8166
[2] = Cytotoxicity against human C8166 cells after 4 days by MTT assay; type: cell-based
Aspergillus fumigatus = assay: Antimicrobial activity against Aspergillus fumigatus ATCC 10894; type: functional, organism-based

SMILES | EC50 [1] | CC50 at 96 h [2] | IC50 (Aspergillus fumigatus) | MIC (Aspergillus fumigatus)
C=C(C)/C=C1/C(=C2\C[C@H](O)[C@@H]3O[C@]3(CC=C(C)C)[C@@H]2O)C=C(C)C[C@@]12C[C@H](O)[C@@H]1O[C@]1(CC=C(C)C)C2=O [PESTALOFONE B] | 64 µM | > 200 µM | – | –
CC(C)=C/C=C1\C[C@H](O)[C@@H]2O[C@]2(CC=C(C)C)C1=O [PESTALOFONE A] | 90.4 µM | > 200 µM | – | –
CC(C)(C)NC(=O)[C@@H]1CN(Cc2cccnc2)CCN1C[C@@H](O)C[C@@H](Cc1ccccc1)C(=O)N[C@H]1c2ccccc2C[C@H]1O [INDINAVIR SULFATE] | 0.00881 µM | – | – | –
C=C(C)/C=C1/C(=C2\C[C@H](O)[C@@H]3O[C@]3(CC=C(C)C)C2=O)C=C(C)C[C@@]12C[C@H](O)[C@@H]1O[C@]1(CC=C(C)C)C2=O [PESTALOFONE C] | – | – | 1.1 µM | 35.3 µM (≈ 18.4 µg/mL)
COC(=O)c1cc(OC)cc2oc3c(CC(=O)[C@@]4(O)C[C@H](O)[C@@H]5O[C@]5(CC=C(C)C)[C@@H]4O)c(C)c(CC(C)=O)c(O)c3c(=O)c12 [PESTALOFONE E] | 93.7 µM | > 200 µM | 0.9 µM | 31.2 µM (≈ 19.5 µg/mL)
OC(Cn1cncn1)(Cn1cncn1)c1ccc(F)cc1F [FLUCONAZOLE] | – | – | 7.35 µM | 163 µM (≈ 50 µg/mL)
